Measurements reported in publication PMC4865820, “Branched Peptide, B2088, Disrupts the Supramolecular Organization of Lipopolysaccharides and Sensitizes the Gram-negative Bacteria” (Scientific Reports, 2016).
Like-named read-outs stand apart in the source and are kept apart here. Positions of bridges follow the written chain, without caps; N, C: chain ends. Non-standard residues stand in square brackets, D forms with d. Residues, ends and D or L forms follow the SMILES beside them. Chains are numbered I, II in the order given. *: point of attachment. X1 = CC[C@H](C)CCCCC(=O)*; Dab = NCC[C@H](N)C(=O)O

Experiments:
P. aeruginosa ATCC 27853 [1] = type: cell-based; details: for Fractional inhibitory concentration of peptide/PMB, combination with Genta: first number in parenthesis; for Fractional inhibitory concentration of peptide/PMB, combination with Genta / Fractional inhibitory concentration of antibiotic, Genta combination: ATCC 27853; for Fractional inhibitory concentration of antibiotic, Genta combination: second number in parenthesis
Method in brief: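 Checkerboard combinations of peptide and antibiotic, each 2-fold diluted up to 1× MIC in MHB, were tested against ~10^6 CFU/ml final inoculum. Plates were incubated 24 h at 37 °C, with growth read at OD600. FICI was the sum of the combination-to-alone MIC ratios for each agent, and the lowest FICI from duplicate experiments was reported.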

[2] = system: LPS (E. coli serotype 055:B5); test: BODIPY TR cadaverine (BC) displacement assay with LPS; type: binding; details: 5 mM HEPES pH 7.4, duplicates; for ED50 (50% displacement of BC dye from LPS; also called BC50): fluorescence ex 580/em 620 nm, with respect to PMB; for EC50: no unit in table, ED50 values in μM, read-out: BC50 (LPS binding)
Method in brief: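 Peptides (0.02–25.6 μM, two-fold dilutions) mixed 1:1 with BODIPY TR cadaverine:LPS (E. coli 055:B5) mixture in 5 mM HEPES pH 7.4; fluorescence at 580/620 nm. Displacement normalized to polymyxin B (Fmax) and probe:LPS alone (F0); ED50 from curve fit, duplicates.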

P. aeruginosa ATCC 27853 [3] = test: microbe, parasite or virus in culture; type: cell-based
Method in brief: (§1)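 Peptides two-fold diluted in Mueller-Hinton Broth (0.0976–50 μg/ml final) against 10^5–10^6 CFU/ml inoculum, 37 °C for 24 h with OD600 monitored every 30 min. MIC = lowest concentration with no visible growth; two independent duplicates.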

lipid A = test: BODIPY TR cadaverine (BC) displacement assay with lipid A; type: binding; details: 5 mM HEPES pH 7.4; fluorescence ex 580/em 620 nm
Excerpt: To investigate the interaction of B2088 with LPS, we performed the BODIPY TR cadaverine (BC) displacement assay reported by Wood et al.[22]. The probe binds to the lipid A part of the LPS with moderate affinity and can be displaced by putative LPS-binding molecules. The method was used to probe the affinity of polycationic molecules and LPS binding proteins. First, we determined the affinity of polymyxin B (PMB), a lipopeptide cyclic antibiotic which has a high affinity for LPS. […] Figure 1a,b show the concentration-dependent displacement of LPS/lipid A-bound BC upon addition of B2088. […] To confirm the importance of branching, we determined the BC50 for a linear retrodimer having the amino acid sequence, […] (Fig. 1d). […]
The BC displacement assay was used to determine the ability of each peptide to bind to LPS. […] The maximum fluorescence intensity (Fmax) was determined using a mixture containing 100 μl PMB (50 μg/ml) and 100 μl BC:LPS solution, as PMB is considered the ‘gold standard’ for LPS-sequestering agents. The minimum fluorescence intensity (F0) was measured using 200 μl of BC:LPS mixture to determine the background noise for this experiment. Fluorescence measurements for each peptide (F) were determined using a microplate reader (Model: TECAN Infinite 200, Austria) with excitation and emission wavelengths set at 580 nm and 620 nm respectively. […]

K. pneumoniae ATCC10031 = type: cell-based
Method in brief: as §1

P. aeruginosa 23155 = type: cell-based
Method in brief: as §1

[4] = system: human corneal epithelial (hTCEpi) cells
Excerpt: To assess the safety of B2088 as a part of preclinical assessment, we used the xCELLigence system for the real-time analysis of cytotoxicity.

[5] = MHB, 10^5–10^6 CFU/ml, 37 °C, 24 h, two independent duplicates

## CC(C)[C@H](NC(=O)[C@H](CCCCN)NC(=O)[C@H](CCCNC(=N)N)NC(=O)CNC(=O)[C@@H](N)CCCNC(=N)N)C(=O)N[C@H](C(=O)N[C@@H](CCCNC(=N)N)C(=O)N[C@@H](CCCNC(=N)N)C(=O)NCCCC[C@H](NC(=O)[C@H](CCCNC(=N)N)NC(=O)[C@H](CCCNC(=N)N)NC(=O)[C@@H](NC(=O)[C@@H](NC(=O)[C@H](CCCCN)NC(=O)[C@H](CCCNC(=N)N)NC(=O)CNC(=O)[C@@H](N)CCCNC(=N)N)C(C)C)C(C)C)C(=O)N[C@@H](CCCCN)C(=O)O)C(C)C [B2088] (I: H-RGRKVVRRKK-OH / II: H-RGRKVVRR; amide I:9-II:C; N-terminus and C-terminus assumed)
P. aeruginosa ATCC 27853 [1]
  Fractional inhibitory concentration of peptide/PMB, combination with Genta: (0.25,0.25)
  Fractional inhibitory concentration of antibiotic, Genta combination: (0.25,0.25)
[2]
  ED50 (50% displacement of BC dye from LPS; also called BC50): 1.92 ± 0.03 µM
  EC50: 1.9 ± 0.1 µM
P. aeruginosa ATCC 27853 [3]; ATCC 27853, 24 h
  Minimum Inhibitory Concentration against P. aeruginosa ATCC 27853: 2.7 µM
Lipid A
  ED50 (50% displacement of BC dye from lipid A): 0.7 ± 0.14 µM
K. pneumoniae ATCC10031; ATCC10031, 24 h
  Minimum Inhibitory Concentration against K. pneumoniae ATCC10031: 1.4 µM
P. aeruginosa 23155; 23155, 24 h
  Minimum Inhibitory Concentration against P. aeruginosa 23155: 1.4 µM
[4]
  Change in CI values with time: significant increase in CI values

## CC[C@H](C)CCCCC(=O)N[C@@H](CCN)C(=O)N[C@H](C(=O)N[C@@H](CCN)C(=O)N[C@H]1CCNC(=O)[C@H]([C@@H](C)O)NC(=O)[C@H](CCN)NC(=O)[C@H](CCN)NC(=O)[C@H](CC(C)C)NC(=O)[C@@H](Cc2ccccc2)NC(=O)[C@H](CCN)NC1=O)[C@@H](C)O [Polymyxin B, polymyxin B, reference compound] (X1-[Dab]T[Dab][Dab][Dab][dF]L[Dab][Dab]T; lactam 4-C (inferred); N-terminus assumed)
P. aeruginosa ATCC 27853 [1]
  Fractional inhibitory concentration of peptide/PMB, combination with Genta: (0.5,0.5)
  Fractional inhibitory concentration of antibiotic, Genta combination: (0.5,0.5)
P. aeruginosa ATCC 27853 [1]; peptide + gentamicin, P. aeruginosa ATCC 27853
  Fractional Inhibitory Concentration Index with Genta: 1.0
[2]
  ED50 (50% displacement of BC dye from LPS; also called BC50): 1.56 ± 0.02 µM
  EC50: 1.56 ± 0.02 µM
P. aeruginosa ATCC 27853 [3]; [5]
  Minimum Inhibitory Concentration against P. aeruginosa ATCC 27853: 0.57 µM
K. pneumoniae ATCC10031; [5]
  Minimum Inhibitory Concentration against K. pneumoniae ATCC10031: 0.57 µM
P. aeruginosa 23155; [5]
  Minimum Inhibitory Concentration against P. aeruginosa 23155: 0.57 µM
